# In ChEMBL document CHEMBL1138371, “Discovery of low nanomolar non-hydroxamate inhibitors of tumor necrosis factor-alpha converting enzyme (TACE)” (Bioorg Med Chem Lett, 2007):
# System: Blood
# Assay: Inhibition of LPS-stimulated TNFalpha production in human whole blood
# Type: functional, tissue-based
row,SMILES,IC50 [µM]
1,Cc1cc(COc2ccc(C(=O)NCC3(N4CCN(C)CC4)C(=O)NC(=O)NC3=O)cc2)c2ccccc2n1,> 50
2,Cc1cc(COc2ccc(C(=O)NCC3(NC(=O)OC(C)(C)C)C(=O)NC(=O)NC3=O)cc2)c2ccccc2n1,> 50
3,Cc1cc(COc2ccc(C(=O)NC3CN(C(=O)OC(C)(C)C)CC34C(=O)NC(=O)NC4=O)cc2)c2ccccc2n1 (stereo unspecified),14
4,Cc1cc(COc2ccc(C(=O)NCC3(N4CCN(C(=O)c5cccnc5)CC4)C(=O)NC(=O)NC3=O)cc2)c2ccccc2n1,43
5,Cc1cc(COc2ccc(C(=O)NCC3(N4CCN(S(C)(=O)=O)CC4)C(=O)NC(=O)NC3=O)cc2)c2ccccc2n1,> 50
6,CC(=O)N1CCN(C2(CNC(=O)c3ccc(OCc4cc(C)nc5ccccc45)cc3)C(=O)NC(=O)NC2=O)CC1,> 50
7,Cc1cc(COc2ccc(C(=O)NCC3(C4CCN(C(=O)OC(C)(C)C)CC4)C(=O)NC(=O)NC3=O)cc2)c2ccccc2n1,35
8,Cc1cc(COc2ccc(C(=O)NCC3(C4CCN(C(C)C)CC4)C(=O)NC(=O)NC3=O)cc2)c2ccccc2n1,> 50
9,Cc1cc(COc2ccc(C(=O)NC3CCCC34C(=O)NC(=O)NC4=O)cc2)c2ccccc2n1 (stereo unspecified),> 50

# Target: Collagenase 3 (Homo sapiens, UniProt P45452)
# Assay: Inhibition of MMP13
row,SMILES,Ki [µM]
1,Cc1cc(COc2ccc(C(=O)NC3CN(C(=O)OC(C)(C)C)CC34C(=O)NC(=O)NC4=O)cc2)c2ccccc2n1 (stereo unspecified),> 5.21

# Target: T1, Matrilysin (Homo sapiens, UniProt P09237)
# T1 sequence (P09237 whole entry): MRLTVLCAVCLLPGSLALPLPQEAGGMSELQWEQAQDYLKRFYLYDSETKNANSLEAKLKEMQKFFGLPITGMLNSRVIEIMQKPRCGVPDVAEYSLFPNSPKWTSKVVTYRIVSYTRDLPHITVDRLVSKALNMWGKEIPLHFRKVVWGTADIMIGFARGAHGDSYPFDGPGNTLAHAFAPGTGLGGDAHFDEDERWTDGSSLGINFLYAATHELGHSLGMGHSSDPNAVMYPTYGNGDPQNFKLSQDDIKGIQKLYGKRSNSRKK
# Assay: Inhibition of MMP7
row,SMILES,Ki [µM]
1,Cc1cc(COc2ccc(C(=O)NCC3(N4CCN(C)CC4)C(=O)NC(=O)NC3=O)cc2)c2ccccc2n1,> 6.37
2,Cc1cc(COc2ccc(C(=O)NCC3(NC(=O)OC(C)(C)C)C(=O)NC(=O)NC3=O)cc2)c2ccccc2n1,> 6.37
3,Cc1cc(COc2ccc(C(=O)NC3CN(C(=O)OC(C)(C)C)CC34C(=O)NC(=O)NC4=O)cc2)c2ccccc2n1 (stereo unspecified),> 6.37
4,Cc1cc(COc2ccc(C(=O)NCC3(N4CCN(C(=O)c5cccnc5)CC4)C(=O)NC(=O)NC3=O)cc2)c2ccccc2n1,> 6.37
5,Cc1cc(COc2ccc(C(=O)NCC3(N4CCN(S(C)(=O)=O)CC4)C(=O)NC(=O)NC3=O)cc2)c2ccccc2n1,> 6.37
6,CC(=O)N1CCN(C2(CNC(=O)c3ccc(OCc4cc(C)nc5ccccc45)cc3)C(=O)NC(=O)NC2=O)CC1,> 6.37
7,Cc1cc(COc2ccc(C(=O)NCC3(C4CCN(C(=O)OC(C)(C)C)CC4)C(=O)NC(=O)NC3=O)cc2)c2ccccc2n1,> 6.37
8,Cc1cc(COc2ccc(C(=O)NCC3(C4CCN(C(C)C)CC4)C(=O)NC(=O)NC3=O)cc2)c2ccccc2n1,> 6.37

# Target: Macrophage metalloelastase (Homo sapiens, UniProt P39900)
# Assay: Inhibition of MMP12
# Chain of Macrophage metalloelastase (P39900 whole entry): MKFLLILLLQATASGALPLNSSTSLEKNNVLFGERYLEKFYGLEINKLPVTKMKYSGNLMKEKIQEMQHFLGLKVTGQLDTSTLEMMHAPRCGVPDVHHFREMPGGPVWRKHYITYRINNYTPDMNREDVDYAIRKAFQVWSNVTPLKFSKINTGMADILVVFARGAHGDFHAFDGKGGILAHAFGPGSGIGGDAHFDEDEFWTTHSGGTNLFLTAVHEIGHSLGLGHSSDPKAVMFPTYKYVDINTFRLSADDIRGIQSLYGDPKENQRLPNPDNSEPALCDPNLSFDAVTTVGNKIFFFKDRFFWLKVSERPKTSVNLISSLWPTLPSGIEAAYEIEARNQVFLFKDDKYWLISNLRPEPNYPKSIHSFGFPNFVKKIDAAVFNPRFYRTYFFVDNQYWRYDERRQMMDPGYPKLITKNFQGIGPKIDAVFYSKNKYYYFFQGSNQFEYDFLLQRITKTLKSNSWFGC
row,SMILES,Ki [µM]
1,Cc1cc(COc2ccc(C(=O)NCC3(N4CCN(C)CC4)C(=O)NC(=O)NC3=O)cc2)c2ccccc2n1,> 6.02
2,Cc1cc(COc2ccc(C(=O)NCC3(NC(=O)OC(C)(C)C)C(=O)NC(=O)NC3=O)cc2)c2ccccc2n1,> 6.02
3,Cc1cc(COc2ccc(C(=O)NC3CN(C(=O)OC(C)(C)C)CC34C(=O)NC(=O)NC4=O)cc2)c2ccccc2n1 (stereo unspecified),1.03
4,Cc1cc(COc2ccc(C(=O)NCC3(N4CCN(C(=O)c5cccnc5)CC4)C(=O)NC(=O)NC3=O)cc2)c2ccccc2n1,4.64
5,Cc1cc(COc2ccc(C(=O)NCC3(N4CCN(S(C)(=O)=O)CC4)C(=O)NC(=O)NC3=O)cc2)c2ccccc2n1,1.02
6,CC(=O)N1CCN(C2(CNC(=O)c3ccc(OCc4cc(C)nc5ccccc45)cc3)C(=O)NC(=O)NC2=O)CC1,> 6.02
7,Cc1cc(COc2ccc(C(=O)NCC3(C4CCN(C(=O)OC(C)(C)C)CC4)C(=O)NC(=O)NC3=O)cc2)c2ccccc2n1,> 6.02
8,Cc1cc(COc2ccc(C(=O)NCC3(C4CCN(C(C)C)CC4)C(=O)NC(=O)NC3=O)cc2)c2ccccc2n1,> 6.02

# Organism: Homo sapiens
# Assay: Inhibition of aggrecanase at 1 uM
row,SMILES,inhibition [%]
1,Cc1cc(COc2ccc(C(=O)NCC3(N4CCN(C)CC4)C(=O)NC(=O)NC3=O)cc2)c2ccccc2n1,21
2,Cc1cc(COc2ccc(C(=O)NCC3(NC(=O)OC(C)(C)C)C(=O)NC(=O)NC3=O)cc2)c2ccccc2n1,16
3,Cc1cc(COc2ccc(C(=O)NC3CN(C(=O)OC(C)(C)C)CC34C(=O)NC(=O)NC4=O)cc2)c2ccccc2n1 (stereo unspecified),44
4,Cc1cc(COc2ccc(C(=O)NCC3(N4CCN(C(=O)c5cccnc5)CC4)C(=O)NC(=O)NC3=O)cc2)c2ccccc2n1,36
5,Cc1cc(COc2ccc(C(=O)NCC3(N4CCN(S(C)(=O)=O)CC4)C(=O)NC(=O)NC3=O)cc2)c2ccccc2n1,11
6,CC(=O)N1CCN(C2(CNC(=O)c3ccc(OCc4cc(C)nc5ccccc45)cc3)C(=O)NC(=O)NC2=O)CC1,21
7,Cc1cc(COc2ccc(C(=O)NCC3(C4CCN(C(=O)OC(C)(C)C)CC4)C(=O)NC(=O)NC3=O)cc2)c2ccccc2n1,0
8,Cc1cc(COc2ccc(C(=O)NCC3(C4CCN(C(C)C)CC4)C(=O)NC(=O)NC3=O)cc2)c2ccccc2n1,21
9,Cc1cc(COc2ccc(C(=O)NC3CCCC34C(=O)NC(=O)NC4=O)cc2)c2ccccc2n1 (stereo unspecified),0

# Target: Disintegrin and metalloproteinase domain-containing protein 17 (Sus scrofa, UniProt O77636)
# Assay: Inhibition of porcine TACE
# Chain of Disintegrin and metalloproteinase domain-containing protein 17 (O77636 whole entry, the tested form may be a part): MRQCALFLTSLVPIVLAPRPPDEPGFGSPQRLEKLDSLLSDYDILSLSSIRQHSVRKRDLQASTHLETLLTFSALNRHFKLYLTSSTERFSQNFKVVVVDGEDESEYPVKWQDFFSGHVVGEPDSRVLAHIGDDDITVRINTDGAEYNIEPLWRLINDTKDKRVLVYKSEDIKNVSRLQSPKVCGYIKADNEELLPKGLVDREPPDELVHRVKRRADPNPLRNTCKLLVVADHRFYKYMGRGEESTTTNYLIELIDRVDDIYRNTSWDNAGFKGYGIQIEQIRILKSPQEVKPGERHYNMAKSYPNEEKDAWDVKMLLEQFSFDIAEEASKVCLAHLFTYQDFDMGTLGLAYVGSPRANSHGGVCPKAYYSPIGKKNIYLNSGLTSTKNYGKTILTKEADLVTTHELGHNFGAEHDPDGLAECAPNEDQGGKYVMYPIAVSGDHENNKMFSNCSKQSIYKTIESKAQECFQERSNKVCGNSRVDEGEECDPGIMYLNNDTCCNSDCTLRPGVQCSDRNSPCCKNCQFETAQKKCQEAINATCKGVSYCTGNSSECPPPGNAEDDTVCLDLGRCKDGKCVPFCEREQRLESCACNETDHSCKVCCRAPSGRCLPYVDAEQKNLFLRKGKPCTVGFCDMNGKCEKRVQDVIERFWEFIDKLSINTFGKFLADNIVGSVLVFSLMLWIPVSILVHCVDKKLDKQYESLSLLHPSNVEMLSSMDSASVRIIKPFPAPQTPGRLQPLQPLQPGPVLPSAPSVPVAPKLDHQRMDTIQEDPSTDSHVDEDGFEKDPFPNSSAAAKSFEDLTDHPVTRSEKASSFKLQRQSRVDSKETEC
row,SMILES,IC50 [µM]
1,Cc1cc(COc2ccc(C(=O)NCC3(N4CCN(C)CC4)C(=O)NC(=O)NC3=O)cc2)c2ccccc2n1,0.058
2,Cc1cc(COc2ccc(C(=O)NCC3(NC(=O)OC(C)(C)C)C(=O)NC(=O)NC3=O)cc2)c2ccccc2n1,0.013
3,Cc1cc(COc2ccc(C(=O)NC3CN(C(=O)OC(C)(C)C)CC34C(=O)NC(=O)NC4=O)cc2)c2ccccc2n1 (stereo unspecified),0.128
4,Cc1cc(COc2ccc(C(=O)NCC3(N4CCN(C(=O)c5cccnc5)CC4)C(=O)NC(=O)NC3=O)cc2)c2ccccc2n1,0.01
5,Cc1cc(COc2ccc(C(=O)NCC3(N4CCN(S(C)(=O)=O)CC4)C(=O)NC(=O)NC3=O)cc2)c2ccccc2n1,0.002
6,CC(=O)N1CCN(C2(CNC(=O)c3ccc(OCc4cc(C)nc5ccccc45)cc3)C(=O)NC(=O)NC2=O)CC1,0.005
7,Cc1cc(COc2ccc(C(=O)NCC3(C4CCN(C(=O)OC(C)(C)C)CC4)C(=O)NC(=O)NC3=O)cc2)c2ccccc2n1,0.047
8,Cc1cc(COc2ccc(C(=O)NCC3(C4CCN(C(C)C)CC4)C(=O)NC(=O)NC3=O)cc2)c2ccccc2n1,0.052
9,Cc1cc(COc2ccc(C(=O)NC3CCCC34C(=O)NC(=O)NC4=O)cc2)c2ccccc2n1 (stereo unspecified),0.024

# Target: 72 kDa type IV collagenase (Homo sapiens, UniProt P08253)
# Assay: Inhibition of MMP2
# Chain of 72 kDa type IV collagenase (P08253 whole entry): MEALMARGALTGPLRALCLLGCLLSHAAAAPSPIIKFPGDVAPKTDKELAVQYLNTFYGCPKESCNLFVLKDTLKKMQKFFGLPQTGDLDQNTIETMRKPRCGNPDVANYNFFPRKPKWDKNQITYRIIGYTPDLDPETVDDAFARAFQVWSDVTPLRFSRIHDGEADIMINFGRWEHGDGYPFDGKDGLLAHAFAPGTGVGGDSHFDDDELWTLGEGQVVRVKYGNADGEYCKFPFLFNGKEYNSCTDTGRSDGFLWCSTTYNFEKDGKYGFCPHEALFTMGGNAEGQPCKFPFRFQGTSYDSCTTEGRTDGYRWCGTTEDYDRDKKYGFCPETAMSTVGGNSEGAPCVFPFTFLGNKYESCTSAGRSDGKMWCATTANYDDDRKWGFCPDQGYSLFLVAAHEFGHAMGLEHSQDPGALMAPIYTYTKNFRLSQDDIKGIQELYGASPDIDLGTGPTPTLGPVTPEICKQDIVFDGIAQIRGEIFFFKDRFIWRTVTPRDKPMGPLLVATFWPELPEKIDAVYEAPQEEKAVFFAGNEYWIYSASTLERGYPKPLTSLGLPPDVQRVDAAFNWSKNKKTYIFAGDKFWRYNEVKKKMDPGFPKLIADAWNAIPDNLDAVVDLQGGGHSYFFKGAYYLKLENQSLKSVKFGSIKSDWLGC
row,SMILES,Ki [µM]
1,Cc1cc(COc2ccc(C(=O)NCC3(N4CCN(C)CC4)C(=O)NC(=O)NC3=O)cc2)c2ccccc2n1,> 3.33
2,Cc1cc(COc2ccc(C(=O)NCC3(NC(=O)OC(C)(C)C)C(=O)NC(=O)NC3=O)cc2)c2ccccc2n1,> 3.33
3,Cc1cc(COc2ccc(C(=O)NC3CN(C(=O)OC(C)(C)C)CC34C(=O)NC(=O)NC4=O)cc2)c2ccccc2n1 (stereo unspecified),> 3.33
4,Cc1cc(COc2ccc(C(=O)NCC3(N4CCN(C(=O)c5cccnc5)CC4)C(=O)NC(=O)NC3=O)cc2)c2ccccc2n1,> 3.33
5,Cc1cc(COc2ccc(C(=O)NCC3(N4CCN(S(C)(=O)=O)CC4)C(=O)NC(=O)NC3=O)cc2)c2ccccc2n1,2.17
6,CC(=O)N1CCN(C2(CNC(=O)c3ccc(OCc4cc(C)nc5ccccc45)cc3)C(=O)NC(=O)NC2=O)CC1,> 3.33
7,Cc1cc(COc2ccc(C(=O)NCC3(C4CCN(C(=O)OC(C)(C)C)CC4)C(=O)NC(=O)NC3=O)cc2)c2ccccc2n1,> 3.33
8,Cc1cc(COc2ccc(C(=O)NCC3(C4CCN(C(C)C)CC4)C(=O)NC(=O)NC3=O)cc2)c2ccccc2n1,> 3.33
9,Cc1cc(COc2ccc(C(=O)NC3CCCC34C(=O)NC(=O)NC4=O)cc2)c2ccccc2n1 (stereo unspecified),> 3.33

# Target: Stromelysin-1 (Homo sapiens, UniProt P08254)
# Assay: Inhibition of MMP3
# Chain of Stromelysin-1 (P08254 whole entry): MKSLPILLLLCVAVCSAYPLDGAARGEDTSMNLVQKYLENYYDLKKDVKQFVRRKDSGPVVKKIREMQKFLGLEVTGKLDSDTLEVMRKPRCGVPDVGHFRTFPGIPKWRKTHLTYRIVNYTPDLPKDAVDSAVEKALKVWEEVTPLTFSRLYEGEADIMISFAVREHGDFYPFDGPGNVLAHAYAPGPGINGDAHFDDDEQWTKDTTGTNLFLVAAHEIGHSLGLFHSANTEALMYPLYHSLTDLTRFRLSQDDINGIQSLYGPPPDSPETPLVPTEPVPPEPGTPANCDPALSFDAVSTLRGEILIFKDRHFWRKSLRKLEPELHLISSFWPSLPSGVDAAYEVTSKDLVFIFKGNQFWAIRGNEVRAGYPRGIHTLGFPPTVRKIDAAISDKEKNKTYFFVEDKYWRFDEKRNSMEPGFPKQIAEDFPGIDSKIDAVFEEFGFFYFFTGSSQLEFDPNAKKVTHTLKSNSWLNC
row,SMILES,Ki [µM]
1,Cc1cc(COc2ccc(C(=O)NCC3(N4CCN(C)CC4)C(=O)NC(=O)NC3=O)cc2)c2ccccc2n1,> 4.5
2,Cc1cc(COc2ccc(C(=O)NCC3(NC(=O)OC(C)(C)C)C(=O)NC(=O)NC3=O)cc2)c2ccccc2n1,> 4.5
3,Cc1cc(COc2ccc(C(=O)NC3CN(C(=O)OC(C)(C)C)CC34C(=O)NC(=O)NC4=O)cc2)c2ccccc2n1 (stereo unspecified),> 4.5
4,Cc1cc(COc2ccc(C(=O)NCC3(N4CCN(C(=O)c5cccnc5)CC4)C(=O)NC(=O)NC3=O)cc2)c2ccccc2n1,> 4.5
5,Cc1cc(COc2ccc(C(=O)NCC3(N4CCN(S(C)(=O)=O)CC4)C(=O)NC(=O)NC3=O)cc2)c2ccccc2n1,> 4.5
6,CC(=O)N1CCN(C2(CNC(=O)c3ccc(OCc4cc(C)nc5ccccc45)cc3)C(=O)NC(=O)NC2=O)CC1,> 4.5
7,Cc1cc(COc2ccc(C(=O)NCC3(C4CCN(C(=O)OC(C)(C)C)CC4)C(=O)NC(=O)NC3=O)cc2)c2ccccc2n1,> 4.5
8,Cc1cc(COc2ccc(C(=O)NCC3(C4CCN(C(C)C)CC4)C(=O)NC(=O)NC3=O)cc2)c2ccccc2n1,> 4.5
